The subject of one assay is monocytes. Put plainly: M1/M2 marker expression in IL-4 treated monocytes (FACS). Particulars: IL4 24 hours then inhibitor 24 h, CD206, MHC-II, CD86, CD80. Format: cell-based. The method, then:
FIG. 4. Effect of BLZ-945 and BLN101 (formulated as AK750) in repolarization of the M2-macrophage phenotype formed upon stimulation with IL-4 to the M1-macrophage phenotype. Monocytes were treated with IL-4 for 24 hours, followed by which they were treated with BLZ-945 or BLN101 (formulated as AK750) in basal DMEM media, and cells were collected at different time points. M1 and M2 markers expression on the macrophages and their isotype control was evaluated separately by FACS. Graph represents the representative M1/M2 ratio by taking into account the various individual M1 and M2 markers that were analyzed using FACS. Data are representative of 3 separate experiments.
Activity Studies of Compound of Formula I • Efficacy of BLN101 vs BLZ945 on the ability to inhibit CSF1R in vitro is studied. RAW264.7 cells are treated with BLZ945 (67 nM) or BLN101 (67 nM) for different time points, at the end of which the cells were exposed to CSF1 (10 ng/ml) for 20 min. The cells were then lysed and analyzed for phosphorylated CSF1R levels. […] Efficacy of BLN101 (in formulation AK750) vs BLZ945 on increase in iNOS expression in vitro is studied. […] At different time-points, the cells are harvested and analyzed the population for M1 (MHCII+, CD86+, CD80+) or M2 (CD206+) markers using fluorescence activated cell sorting (FIG. 5d). […]

Another assay deals with B16/F10 melanoma. Put plainly: B16/F10 melanoma tumor growth. Format: in vivo, mice. The following applies: 45 mg/kg on day 0, day 4 and day 8. An excerpt:
FIG. 6. Effect of BLN101 on tumor growth inhibition. […] To validate the therapeutic efficacy of AK750, we randomly sorted mice bearing B16/F10 melanoma into three groups and treated each group with one of the following: blank vehicle (control); AK750; and BLZ945. The mice injected with vehicle formed large tumors by Day 10 (the day of first injection being Day 0), and consequently were killed. The animals in the other groups were also killed at the same time point to evaluate the effect of the treatments on tumor pathology. […] Changes in body weight were within the acceptable limits.
Activity Studies of Compound of Formula I • Efficacy of BLN101 vs BLZ945 on the ability to inhibit CSF1R in vitro is studied. RAW264.7 cells are treated with BLZ945 (67 nM) or BLN101 (67 nM) for different time points, at the end of which the cells were exposed to CSF1 (10 ng/ml) for 20 min. The cells were then lysed and analyzed for phosphorylated CSF1R levels. […] Efficacy of BLN101 (in formulation AK750) vs BLZ945 on increase in iNOS expression in vitro is studied. It is observed that exposure to Tumor Conditioned Media over 24 h decreases INOS levels. […] At different time-points, the cells are harvested and analyzed the population for M1 (MHCII+, CD86+, CD80+) or M2 (CD206+) markers using fluorescence activated cell sorting (FIG. 5d). […]

As to `CNC(=O)c1cc(Oc2ccc3nc(NC4CCCC[C@H]4OC(=O)CCC(=O)O[C@H]4CC[C@@]5(C)C(=CC[C@H]6[C@@H]7CC[C@H](C(C)CCCC(C)C)[C@@]7(C)CC[C@@H]65)C4)sc3c2)ccn1` (stereo in doubt) [BLN101], the “M1 and M2 macrophage markers” value in the assay on monocytes is “significantly increases the markers associated with M1 macrophages while reducing the M2 macrophage markers”.

On to `CNC(=O)c1cc(Oc2ccc3nc(N[C@@H]4CCCC[C@H]4O)sc3c2)ccn1` [BLZ-945], for which the tumor growth result with B16/F10 melanoma is “decreased tumor growth compared with vehicle-treated animals”.

(Values after patent publication US10736968B2, “Cellular signalling inhibitors, their formulations and methods thereof” (INVICTUS ONCOLOGY PVT. LTD., priority 2016, dated 2020).)
